Drawing on patent publication US10688093B2, “Methods, compositions, and uses of novel Fyn kinase inhibitors” (priority 2015, dated 2020), this text covers IC50 for 43 compounds.

Molecules are shown by their SMILES.

Sequence of full-length recombinant human FYN A (P06241 whole entry): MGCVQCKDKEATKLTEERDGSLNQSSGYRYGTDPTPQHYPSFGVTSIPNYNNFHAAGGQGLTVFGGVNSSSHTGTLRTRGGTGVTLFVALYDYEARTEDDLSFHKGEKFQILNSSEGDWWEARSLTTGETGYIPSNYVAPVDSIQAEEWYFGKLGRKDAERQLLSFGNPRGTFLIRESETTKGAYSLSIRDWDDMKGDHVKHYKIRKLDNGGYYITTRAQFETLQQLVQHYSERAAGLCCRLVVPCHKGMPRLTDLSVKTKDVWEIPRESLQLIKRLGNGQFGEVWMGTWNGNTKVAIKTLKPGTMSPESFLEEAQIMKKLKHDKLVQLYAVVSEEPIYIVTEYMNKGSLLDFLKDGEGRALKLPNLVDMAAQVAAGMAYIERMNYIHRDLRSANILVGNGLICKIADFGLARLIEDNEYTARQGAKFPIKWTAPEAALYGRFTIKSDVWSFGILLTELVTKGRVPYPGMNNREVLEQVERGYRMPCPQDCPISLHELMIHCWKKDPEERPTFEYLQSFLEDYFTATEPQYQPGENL

The first test has as its target full-length recombinant human FYN A (Homo sapiens (Human), UniProt P06241). Kind of test: ADP-Glo Kinase Assay of FYN kinase inhibition. In kind it is biochemical. The note with it: primary screen, initial compounds. A digest of the protocol: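 ADP-Glo read-out of peptide phosphorylation after 90 min RT with 12.5 pmol ATP and 100 pg 12-mer substrate. Enzyme was N-GST full-length human FYN A from insect cells, 3 pg, pre-incubated 30 min with compound, 10 points from 10 μM top, 3-fold steps; IC50 from curve.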
In general terms: ADP-Glo first removes unused ATP, then detects ADP through luciferase.
Broadly, the IC50 is the concentration at which inhibition is half-maximal. In the case of `Cc1cccc(Cc2ccc3ncc(-c4cnn(C)c4)n3n2)c1` [Compound 477, 3-(1-methylpyrazol-4-yl)-6-(m-tolylmethyl) imidazo[1,2-b]pyridazine], the IC50 came to 1800 nM.

Take `c1cc(-c2n[nH]c3nccc(-c4ccoc4)c23)ccn1` [Compound 534, 4-(3-furyl)-3-(4-pyridyl)-1H-pyrazolo[3,4-b]pyridine]: the IC50 is 20200 nM.

Take `CCC(CO)Nc1ccc2ncc(-c3ccc(OC)cc3)n2n1` (stereo not shown) [229_0153_0280, 2-[[3-(4-methoxyphenyl)imidazo[1,2-b]pyridazin-6-yl]amino] butan-1-ol]: the concentration for half-maximal inhibition (IC50) was found to be 1280 nM.

Turning to `CN1CCN(c2ccc(Nc3cc4c(cn3)cc(-c3cccnc3)n4Cc3ccccc3)cc2)CC1` [Compound 305, 1-benzyl-N-[4-(4-methyl-piperazin-1-yl)phenyl]-2-(3-pyridyl)pyrrolo [3,2-c]pyridin-6-amine], the half-maximal inhibitory concentration (IC50) came to 13700 nM.

As to `COc1ccc(-c2cnc3sc(NC4CCC(O)CC4)nn23)cn1` (stereo not shown) [Compound 563, 4-[[5-(6-methoxy-3-pyridyl)imidazo[2,1-b] [1,3,4]thiadiazol-2-yl]amino] cyclohexanol], the half-inhibitory concentration (IC50) was 1610 nM.

For the compound `CC(=O)Nc1cc(-c2ccc(N)cc2)cn2c(-c3ccc(F)cc3)cnc12` [Compound 575, N-[6-(4-aminophenyl)-3-(4-fluorophenyl)imidazo[1,2-a]pyridin-8-yl]acetamide], the 50% inhibitory concentration (IC50) was determined as 5250 nM.

`COc1ccc(-c2cnc(N)c(-c3cccc(O)c3)c2)cc1OC` [382_0284_0079, 3-[2-amino-5-(3,4-dimethoxy-phenyl)-3-pyridyl]phenol]: the IC50 stood at 2000 nM.

Consider `COc1cccc(-c2cnc3ccc(NCc4cccs4)nn23)c1` [229_0146_4140, 3-(3-methoxyphenyl)-N-(2-thienylmethyl) imidazo[1,2-b]pyridazin-6-amine], for which the IC50 worked out at 2950 nM.

For `CS(=O)(=O)Nc1cccc(-c2cn3c(-c4ccsc4)cnc3cn2)c1` [Compound 202, N-[3-[3-(3-thienyl)imidazo [1,2-a]pyrazin-6-yl]phenyl] methane-sulfonamide], the concentration for half-maximal inhibition (IC50) was found to be 3320 nM.

For the compound `COc1cc(-c2cc(-c3ccc(O)cc3)cnc2N)cc(OC)c1OC` [382_0087_7249, 4-[6-amino-5-(3,4,5-trimethoxy-phenyl)-3-pyridyl]phenol], the 50% inhibitory concentration (IC50) is 1730 nM.

With `COc1ccc(-c2cc(=O)c3cc(O)ccc3o2)cc1OC` [Compound 300, 2-(3,4-dimethoxy-phenyl)-6-hydroxy-chromen-4-one], the half-maximal inhibitory concentration (IC50) stood at 8950 nM.

For the compound `Oc1cccc(-c2ccnc3[nH]nc(-c4ccc5c(c4)OCO5)c23)c1` [Compound 517, 3-[3-(1,3-benzodioxol-5-yl)-1H-pyrazolo[3,4-b]pyridin-4-yl]phenol], the IC50 is 6250 nM.

For `CNC(=O)c1cccc(-c2ccc3ncc(-c4cccc(NC(C)=O)c4)n3n2)c1` [Compound 445, 3-[3-(3-acetamido-phenyl)imidazo [1,2-b]pyridazin-6-yl]-N-methyl-benzamide], the IC50 was 1330 nM.

For the compound `Fc1ccc(-c2cnc3sc(NCCN4CCOCC4)nn23)cc1Cl` [Compound 561, 5-(3-chloro-4-fluoro-phenyl)-N-(2-morpholino-ethyl)imidazo [2,1-b][1,3,4] thiadiazol-2-amine], the concentration for half-maximal inhibition (IC50) came out at 4820 nM.

For `Nc1cccc(-c2cnc3ccc(NC4CCOCC4)nn23)c1` [229_0242_0005, 3-(3-aminophenyl)-N-tetrahydro-pyran-4-yl-imidazo[1,2-b]pyridazin-6-amine], the IC50 was 746 nM.

As for `CC(=O)c1cccc(-c2cnc3sc(NC4CCC(O)CC4)nn23)c1` (stereo not shown) [Compound 254, 1-[3-[2-[(4-hydroxycyclo-hexyl)amino]imidazo[2,1-a] [1,3,4]thiadiazol-5-yl]phenyl] ethanone], the concentration for half-maximal inhibition (IC50) was determined as 487 nM.

Regarding `COc1ccc(-c2cnc3ccc(-c4cccc(C(=O)NCCO)c4)nn23)cc1OC` [Compound 389, 3-[3-(3,4-dimethoxyphenyl)imidazo[1,2-a]pyridazin-6-yl]-N-(2-hydroxyethyl) benzamide], the half-maximal inhibitory concentration (IC50) was determined as 367 nM.

In the case of `Oc1ccc(-c2cn3c(-c4cccs4)cnc3cn2)cc1` [388_4147_0080, 4-[3-(2-thienyl)imidazo [1,2-a]pyrazin-6-yl]phenol], the IC50 came out at 6250 nM.

With `COc1ccccc1-c1n[nH]c2nccc(-c3ccc(CO)cc3)c12` [Compound 532, [4-[3-(2-methoxyphenyl)-1H-pyrazolo[3,4-b]pyridin-4-yl]phenyl] methanol], the IC50 turned out to be 1100 nM.

On to `c1ccc(-c2n[nH]c3nccc(-c4cn[nH]c4)c23)cc1` [Compound 504, 3-phenyl-4-(1H-pyrazol-4-yl)-1H-pyrazolo[3,4-b]pyridine], for which the IC50 amounted to 852 nM.

Turning to `COc1cc(-c2cnc3ccc(NCc4cccs4)nn23)cc(OC)c1OC` [229_0146_0087, N-(2-thienylmethyl)-3-(3,4,5-trimethoxyphenyl) imidazo[1,2-b]pyridazin-6-amine], the half-maximal inhibitory concentration (IC50) stood at 3100 nM.

As for `OCc1ccc(-c2ccnc3[nH]nc(-c4cccc(Cl)c4)c23)cc1` [Compound 526, [4-[3-(3-chlorophenyl)-1H-pyrazolo[3,4-b]pyridin-4-yl]phenyl] methanol], the IC50 amounted to 6500 nM.

`COc1cncc(-c2cnc3sc(NCc4ccncc4)nn23)c1` [Compound 546, 5-(5-methoxy-3-pyridyl)-N-(4-pyridylmethyl) imidazo[2,1-b][1,3,4] thiadiazol-2-amine]: the IC50 was found to be 932 nM.

Turning to `NC(=O)c1cccc(-c2cnc3sc(NCc4ccco4)nn23)c1` [Compound 266, 3-[2-(2-furylmethyl-amino)imidazo[2,1-b] [1,3,4]thiadiazol-5-yl]benzamide], the half-maximal inhibitory concentration (IC50) worked out at 1230 nM.

Take `COc1cccc(-c2cnc(N)c(-c3ccc(O)cc3)c2)c1` [382_7249_4140, 4-[2-amino-5-(3-methoxyphenyl)-3-pyridyl]phenol]: the IC50 turned out to be 3490 nM.

Turning to `COc1cc(OC)cc(-c2cnc3cnc(-c4ccc(C(=O)NCCCN(C)C)cc4)cn23)c1` [388_7492_0180, 4-[3-(3,5-dimethoxyphenyl)imidazo[1,2-a]pyrazin-6-yl]-N-[3-(dimethyl-amino)propyl] benzamide], the half-maximal inhibitory concentration (IC50) was found to be 6690 nM.

Take `COc1ccc(-c2cnc3ccc(-c4ccncc4)nn23)cc1OC` [Compound 395, 3-(3,4-dimethoxy-phenyl)-6-(4-pyridyl)imidazo [1,2-b]pyridazine]: the half-inhibitory concentration (IC50) was 404 nM.

On to `COc1cc(Nc2cncc(-c3cccc(NC(C)=O)c3)c2)cc(OC)c1OC` [081_0087_0081, N-[3-[5-(3,4,5-trimethoxyanilino)-3-pyridyl]phenyl] acetamide], for which the IC50 came out at 391 nM.

On to `COc1cccc(-c2ccc3ncc(-c4ccc(O)c(OC)c4)n3n2)c1` [Compound 366, 2-methoxy-4-[6-(3-methoxyphenyl)imidazo[1,2-b]pyridazin-3-yl]phenol], for which the IC50 came to 221 nM.

Consider `COc1ccc(-c2cnc(N)c(-c3cc(OC)c(OC)c(OC)c3)c2)cn1` [382_0087_0311, 5-(6-methoxy-3-pyridyl)-3-(3,4,5-trimethoxyphenyl) pyridin-2-amine], for which the IC50 amounted to 1060 nM.

Take `Oc1ccc(-c2cnc3ccc(NCc4ccc5c(c4)OCO5)nn23)cc1` [229_0236_0080, 4-[6-(1,3-benzodioxol-5-ylmethyl-amino)imidazo[1,2-b]pyridazin-3-yl]phenol]: the IC50 was 5670 nM.

In the case of `CC(=O)Nc1cccc(-c2cnc3ccc(-c4ccc(CO)cc4)nn23)c1` [Compound 317, N-[3-[6-[4-(hydroxymethyl)phenyl]imidazo [1,2-b]pyridazin-3-yl]phenyl] acetamide], the IC50 worked out at 494 nM.

Take `COc1cc(-c2cnc3cnc(-c4ccccc4Cl)cn23)ccc1O` [388_0314_4027, 4-[6-(2-chlorophenyl)imidazo[1,2-a]pyrazin-3-yl]-2-methoxy-phenol]: the IC50 stood at 2540 nM.

Take `COc1ccc(-c2ccnc3[nH]nc(-c4ccccc4OC)c23)cn1` [Compound 491, 3-(2-methoxyphenyl)-4-(6-methoxy-3-pyridyl)-1H-pyrazolo[3,4-b]pyridine]: the IC50 worked out at 2930 nM.

Take `c1csc(CNc2nn3c(-c4ccncc4)cnc3s2)c1` [Compound 567, 5-(4-pyridyl)-N-(2-thienylmethyl) imidazo[2,1-b] [1,3,4]thiadiazol-2-amine]: the 50% inhibitory concentration (IC50) stood at 3620 nM.

For the compound `c1ccc(-c2n[nH]c3nccc(-c4ccoc4)c23)cc1` [Compound 528, 4-(3-furyl)-3-phenyl-1H-pyrazolo[3,4-b]pyridine], the IC50 stood at 8630 nM.

For `CC(=O)c1cccc(-c2cnc3ccc(-c4cccc(O)c4)nn23)c1` [Compound 294, 1-[3-[6-(3-hydroxyphenyl)imidazo[1,2-a]pyridazin-3-yl]phenyl] ethanone], the half-maximal inhibitory concentration (IC50) worked out at 994 nM.

On to `CC(=O)Nc1cccc(-c2cnc3ccc(-c4cccc(C(C)=O)c4)nn23)c1` [Compound 354, N-[3-[6-(3-acetylphenyl)imidazo[1,2-b]pyridazin-3-yl]phenyl] acetamide], for which the IC50 came to 466 nM.

The test is the same for the next values; noted with them: secondary screen, re-synthesized and expanded compounds.
Consider `CC(=O)c1cccc(-c2cnc3ccc(NCCCO)nn23)c1` [BF000817098, 1-[3-[6-(3-hydroxy-propyl-amino)-imdazo[1,2-b]pyridazin-3-yl]phenyl]-ethanone], for which the IC50 is 645 nM.

On to `COc1cc(-c2cnc3ccc(NC4CCOCC4)nn23)cc(OC)c1OC` [BF000147394, N-tetrahydro-pyran-4-yl-3-(3,4,5-trimethoxy-phenyl)-imidazo[1,2-b]pyridazin-6-amine], for which the 50% inhibitory concentration (IC50) is 503 nM.

Regarding `Nc1cccc(-c2cnc3ccc(NC4CCOCC4)nn23)c1` [BF000146142, 3-(3-aminophenyl)-N-tetrahydro-pyran-4-yl-imidazo[1,2-b]pyridazin-6-amine], the half-inhibitory concentration (IC50) is 1420 nM.

For `c1cc(-c2cnc3ccc(NCc4ccc5c(c4)OCO5)nn23)ccn1` [BF000146108, N-(1,3-benzodioxol-5-ylmethyl)-3-(4-pyridyl)-imidazo[1,2-b]pyridazin-6-amine], the IC50 amounted to 297 nM.

Take `OCc1cccc(-c2ccc3ncc(-c4cccc(CO)c4)n3n2)c1` [BF000817188, [3-[3-[3-(hydroxy-methyl)-phenyl]-imidazo[1,2-b]pyridazin-6-yl]phenyl]-methanol]: the half-maximal inhibitory concentration (IC50) is 828 nM.
